Experimental data: the supplement of paper PMC10307832

How the values were obtained:
Assay in all cases: relative viability (nuclei count vs DMSO), 5 days (fraction); higher = more cells survive
[1] = tested on: ABC-1
Method in brief: (§1)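 A single step with final 0.05% Triton X-100, 1% formaldehyde and 1 ug/ml Hoechst fixed the cells and stained nuclei 5 days after treatment. Lung cancer cell lines in 1536-well plates had been treated by pin tool the day after seeding with one drug alone or a fixed anchor-drug dose plus five library-drug doses (not always all listed) in √10 steps, and nuclei were counted on 4× images. Relative viability is the ratio of nuclei in treated wells to nuclei in vehicle wells, taken as the median of duplicate plates.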

[2] = tested on: CAL-12T
Method in brief: as §1

[3] = tested on: ChaGo-K-1
Method in brief: as §1

[4] = tested on: HCC-366
Method in brief: as §1

[5] = tested on: HCC-78
Method in brief: as §1

[6] = tested on: LC-2-ad
Method in brief: as §1

[7] = tested on: LOU-NH91
Method in brief: as §1

[8] = tested on: LU99A
Method in brief: as §1

[9] = tested on: NCI-H1651
Method in brief: as §1

[10] = tested on: NCI-H1734
Method in brief: as §1

[11] = tested on: NCI-H1755
Method in brief: as §1

## CC1(C)CCC(c2ccc(Cl)cc2)=C(CN2CCN(c3ccc(C(=O)NS(=O)(=O)c4ccc(N[C@H](CCN5CCOCC5)CSc5ccccc5)c(S(=O)(=O)C(F)(F)F)c4)cc3)CC2)C1 [Navitoclax] + C[C@@H](Oc1cc(-c2cnn(C3CCNCC3)c2)cnc1N)c1c(Cl)ccc(F)c1Cl [Crizotinib] (partner 1 µM)
[1]; first compound 0.005 µM
  relative viability: 1.19
[1]; first compound 0.01581 µM
  relative viability: 1.4
[1]; first compound 0.05 µM
  relative viability: 1.19
[1]; first compound 0.1581 µM
  relative viability: 1.14
[1]; first compound 0.5 µM
  relative viability: 0.983
[2]; first compound 0.005 µM
  relative viability: 0.589
[2]; first compound 0.01581 µM
  relative viability: 0.653
[2]; first compound 0.05 µM
  relative viability: 0.725
[2]; first compound 0.1581 µM
  relative viability: 0.744
[2]; first compound 0.5 µM
  relative viability: 0.536
[3]; first compound 0.005 µM
  relative viability: 1.1
[3]; first compound 0.01581 µM
  relative viability: 1.11
[3]; first compound 0.05 µM
  relative viability: 0.601
[3]; first compound 0.1581 µM
  relative viability: 1.1
[3]; first compound 0.5 µM
  relative viability: 1.19
[4]; first compound 0.005 µM
  relative viability: 0.456
[4]; first compound 0.01581 µM
  relative viability: 0.635
[4]; first compound 0.05 µM
  relative viability: 0.0527
[4]; first compound 0.1581 µM
  relative viability: 0.514
[4]; first compound 0.5 µM
  relative viability: 0.562
[5]; first compound 0.005 µM
  relative viability: 0.368
[5]; first compound 0.01581 µM
  relative viability: 0.376
[5]; first compound 0.1581 µM
  relative viability: 0.345
[5]; first compound 0.5 µM
  relative viability: 0.322
[6]; first compound 0.005 µM
  relative viability: 0.422
[6]; first compound 0.01581 µM
  relative viability: 0.489
[6]; first compound 0.05 µM
  relative viability: 0.538
[6]; first compound 0.1581 µM
  relative viability: 0.429
[6]; first compound 0.5 µM
  relative viability: 0.575
[7]; first compound 0.005 µM
  relative viability: 0.766
[7]; first compound 0.01581 µM
  relative viability: 0.742
[7]; first compound 0.05 µM
  relative viability: 0.807
[7]; first compound 0.1581 µM
  relative viability: 0.731
[7]; first compound 0.5 µM
  relative viability: 0.711
[8]; first compound 0.005 µM
  relative viability: 0.549
[8]; first compound 0.01581 µM
  relative viability: 0.691
[8]; first compound 0.05 µM
  relative viability: 0.39
[8]; first compound 0.1581 µM
  relative viability: 0.588
[8]; first compound 0.5 µM
  relative viability: 0.638
[9]; first compound 0.005 µM
  relative viability: 0.877
[9]; first compound 0.01581 µM
  relative viability: 0.939
[9]; first compound 0.05 µM
  relative viability: 0.78
[9]; first compound 0.1581 µM
  relative viability: 0.821
[9]; first compound 0.5 µM
  relative viability: 0.839
[10]; first compound 0.005 µM
  relative viability: 0.705
[10]; first compound 0.01581 µM
  relative viability: 0.681
[10]; first compound 0.1581 µM
  relative viability: 0.785
[10]; first compound 0.5 µM
  relative viability: 0.693
[11]; first compound 0.005 µM
  relative viability: 0.823
[11]; first compound 0.01581 µM
  relative viability: 0.903
[11]; first compound 0.05 µM
  relative viability: 0.715
